Experiments:
[1] = test system: caspase-9; assay: Caspase Glo assay, caspase-9; type: cell-based, human; settings: 0.245 μM; at 16 and 24 h post treatment
Experimental: Total protein was extracted and measured as described in Kamsteeg, et al., 2003, Oncogene 22:2611-2620. Activity of caspase 3/7 and caspase 9 was quantified using Caspase Glo assay (Promega).
The activities of caspase-3/7 and caspase-9 were assessed at 2, 4, 6, 8, 16, and 24 hours post-treatment with TRX-E-002-1.

[2] = mouse, in vivo
Description: (§1) The Yale University Institutional Animal Care and Use Committee approved all in vivo studies described. Intra-peritoneal tumors were established in athymic nude mice using 4×10^6 mCherry+OCSC1-F2 ovarian cancer cells (Craveiro, et al., 2013, Cancer Med. 2:751-762). Injection of cancer cells is designated as day 0 and treatment commenced between day 3-5. Establishment of i.p. tumors was confirmed by live imaging (In-Vivo FX PRO, Bruker Corp., Billerica, Mass.) prior to treatment. TRX-E-002-1 was prepared in 20% Captisol or Dexsolve and administered daily at 50 mg/kg or 100 mg/kg. Paclitaxel was given at 12 mg/kg q3d and Cisplatin at 5 mg/kg weekly. All treatments were given i.p. Tumor growth was monitored q3d by live imaging and response to treatment was assessed using ROI area.
To determine activity against primary disease as well as to determine the maximum tolerated dose (MTD), a dose response study was performed. […] Animals however recovered from the distension upon cessation of treatment. […] Thus, the MTD was established at daily 100 mg/kg i.p. and this dose was employed for the succeeding studies employing combination treatment.

[3] = test system: OCC2 (CD44-/MyD88- ovarian cancer cells); assay: IC50 against chemosensitive ovarian cancer cells OCC2; type: cell-based, human; settings: read-out: IC50 (percentage of viable cells)
Experimental: CD44+/MyD88+ ovarian cancer stem cell clones (OCSC1 and OCSC2) and CD44−/MyD88− ovarian cancer cells (OCC1 and OCC2) were isolated from either tumor tissue or ascites obtained from patients diagnosed with stage III/IV serous ovarian cancer and propagated (Alvero, et al., 2009, Cell Cycle 8:158-166; Chefetz, et al., 2013, Cell Cycle 12:511-521). The epithelial nature of the isolated cells was determined by immunostaining for Ck18. Purity of the cultures based on CD44 expression by flow cytometry and chemoresistance were routinely tested. […]
Effect of each compound on cell morphology, growth, and viability was assessed using a kinetic live cell imaging system (Incucyte, Essen Bioscience). Proliferation was calculated as previously described (Alvero, et al., 2011, Mol. Cancer Ther. 10:1385-1393) using metrics from either confluence or fluorescent count from nuclear-restricted RFP or GFP. Cell death was quantified; similarly CELLTOX® Green Cytotoxicity Assay (Promega, Madison, Wis.). IC50 was calculated as described using GraphPad Prism (GraphPad Software Inc., LaJolla, Calif.).
Once the efficacy of TRX-E-002-1 against chemoresistant OCSC was established, its activity against two clones of chemosensitive ovarian cancer cells (OCC1 and OCC2) was determined.

[4] = test system: i.p. tumors of mCherry+OCSC1-F2 ovarian cancer cells; assay: Recurrent disease xenograft, maintenance treatment after Paclitaxel; type: in vivo
Description: as §1
Although the standard of care for ovarian cancer patients (platinum plus taxane) is effective initially, most patients develop recurrent disease. Recurrence is the major cause of mortality in ovarian cancer patients, and thus approaches that can prevent recurrence are critical to improve patient survival. As described elsewhere herein, a unique advantage of the xenograft model is the recapitulation of recurrent disease that is typically observed in patients with ovarian cancer. […] Upon recurrence, tumors acquire resistance and become unresponsive to a second-round of Paclitaxel regimen, as observed in ovarian cancer patients. Thus, the model allows one to assess the value of novel compounds in preventing recurrence when given as maintenance treatment.
Thus mice were given Paclitaxel as initial treatment. […] After the 4th dose of Paclitaxel mice were re-randomized into the different maintenance groups. Here the maintenance protocol consisted of continued treatment with Paclitaxel, or maintenance with TRX-E-002-1 (100 mg/kg), or maintenance with Vehicle control.

[5] = test system: ERK; assay: Phosphokinase array / Western blot for phosphorylated ERK in OCSCs; type: cell-based, human; settings: compared to controls; from 2 h up to 24 h post-treatment
Experimental: SDS-PAGE and Western blots were performed using 20 μg of total protein lysate as described in Kamsteeg, et al., 2003, Oncogene 22:2611-2620. Antibodies used were: mouse anti-phospho ERK (Santa Cruz Biotechnology, Inc., Dallas, Tex.); rabbit anti-phospho c-Jun, rabbit anti c-Jun, rabbit anti-ERK, rabbit anti-cleaved caspase 3 all from Cell Signaling Technology, Danvers, Mass.; and mouse anti-GAPDH (Sigma-Aldrich).
In order to elucidate the early pathways responsible for the sustained cytotoxic effect observed with TRX-E-002-1, a phosphokinase array was performed. The phosphokinase array detected relative phosphorylation levels of 43 different kinases involved in major signal transduction pathways.
The western blot results also validated the decrease in p-ERK in cells treated with TRX-E-002-1. […] The effect on the phosphorylation status of the kinases (upregulation of p-cJun and downregulation of p-ERK) was observed as early as 2 h post-treatment and maintained up to 24 h (FIG. 4A). The phosphorylation levels of c-Jun and ERK correlate with the differential ability of the two doses of TRX-E-002-1 to induce a sustained cytotoxic effect. […] This correlates with the ability of this dose of TRX-E-002-1 to maintain the upregulation of p-cJun and downregulation of p-ERK even when the compound is removed (FIG. 4B). […]

## COc1cc(C2COc3c(ccc(O)c3C)C2c2ccc(O)cc2)cc(OC)c1O (single isomer, unassigned) [TRX-E-002-1]
[1]
  caspase-9 activity: significant increase
[2]
  toxicity at high concentrations in animal studies: evidence of some potential toxicity
[2]; ip
  maximum tolerated dose (MTD): 100 mg/kg
[3]
  IC50: 27 nM
[4]; TRX-E-002-1 100 mg/kg daily i.p. maintenance
  tolerability of the maintenance schedule: no signs of disease or morbidity requiring euthanasia
[4]; after 4th dose of Paclitaxel, TRX-E-002-1 100 mg/kg daily i.p. or continued Paclitaxel
  tumor progression during maintenance treatment: effectively retarded tumor proliferation
[4]; by day 35, TRX-E-002-1 100 mg/kg maintenance
  tumor burden (ROI area) versus group maintained with Paclitaxel: significantly less
[4]; maintenance groups
  gross examination of residual disease: microscopic metastasis
  tumor weights at end point compared to control: significantly reduced
[5]
  levels of phosphorylated-ERK (p-ERK): lower levels
